Experimental data from patent US10597388B2, “Pyridazinone herbicides” (FMC CORPORATION, priority 2014, dated 2020).

Key:
Assay in all cases: Test C greenhouse herbicide test, pre- and postemergence
Format in all cases: in vivo
[1] = tested on: barnyardgrass (Echinochloa crus-galli)
Outline: (§1)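 Each species was treated both before emergence, in a loam–sand soil mix, and after emergence, as 1- to 4-leaf seedlings in peat-based potting medium. Plants stayed in the greenhouse 13 to 15 d, then were scored from 0 (no effect) to 100 (complete control) relative to controls.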

[2] = tested on: blackgrass (Alopecurus myosuroides)
Outline: as §1

[3] = tested on: corn (Zea mays)
Outline: as §1

[4] = tested on: crabgrass, large (large crabgrass, Digitaria sanguinalis)
Outline: as §1

[5] = tested on: johnsongrass (Sorghum halepense)
Outline: as §1

[6] = tested on: lambsquarters (Chenopodium album)
Outline: as §1

[7] = tested on: morningglory (Ipomoea coccinea)
Outline: as §1

[8] = tested on: nutsedge, yellow (yellow nutsedge, Cyperus esculentus)
Outline: as §1

[9] = tested on: pigweed (Amaranthus retroflexus)
Outline: as §1

[10] = tested on: ragweed (common ragweed, Ambrosia elatior)
Outline: as §1

[11] = tested on: ryegrass, Italian (Italian ryegrass, Lolium multiflorum)
Outline: as §1

[12] = tested on: soybean (Glycine max)
Outline: as §1

[13] = tested on: velvetleaf (Abutilon theophrasti)
Outline: as §1

[14] = tested on: waterhemp (common waterhemp, Amaranthus rudis)
Outline: as §1

[15] = tested on: wheat (winter wheat, Triticum aestivum)
Outline: as §1

[16] = Postemergence, 31 g ai/ha, scale 0 to 100 (0 no effect, 100 complete control)
[17] = Postemergence, 125 g ai/ha, scale 0 to 100, 0 is no effect, 100 is complete control
[18] = Postemergence, 250 g ai/ha, scale 0 to 100, 0 no effect, 100 complete control, 13 to 15 d
[19] = Preemergence, 31 g ai/ha, scale 0 to 100, 0 is no effect, 100 is complete control
[20] = Preemergence, 62 g ai/ha, scale 0 to 100, 0 is no effect, 100 is complete control
[21] = Preemergence, 125 g ai/ha, scale 0 to 100, 0 is no effect, 100 is complete control
[22] = Preemergence, 250 g ai/ha, scale 0 to 100, 0 no effect, 100 complete control
[23] = postemergence, 62 g ai/ha, scale 0 to 100, 0 no effect, 100 complete control

## Cc1nn(C)c(=O)c(-c2c(C)sc3ccc(C(F)(F)F)cc23)c1O [Compound 121]
[1]; [16]
  Plant response rating, Barnyardgrass: 20
[1]; [17]
  Plant response rating, Barnyardgrass: 25
[1]; [18]
  Plant response rating, Barnyardgrass: 30
[1]; [19]
  Plant response rating, Barnyardgrass: 5
[1]; [20]
  Plant response rating, Barnyardgrass: 10
[1]; [21]
  Plant response rating, Barnyardgrass: 55
[1]; [22]
  Barnyardgrass plant response rating: 60
[1]; [23]
  Barnyardgrass plant response rating: 20
[2]; [16]
  Plant response rating, Blackgrass: 0
[2]; [17]
  Plant response rating, Blackgrass: 15
[2]; [18]
  Plant response rating, Blackgrass: 50
[2]; [19]
  Plant response rating, Blackgrass: 10
[2]; [20]
  Plant response rating, Blackgrass: 45
[2]; [21]
  Plant response rating, Blackgrass: 45
[2]; [22]
  Blackgrass plant response rating: 60
[2]; [23]
  Blackgrass plant response rating: 15
[3]; [16]
  Plant response rating, Corn: 0
[3]; [17]
  Plant response rating, Corn: 5
[3]; [18]
  Plant response rating, Corn: 5
[3]; [19]
  Plant response rating, Corn: 0
[3]; [20]
  Plant response rating, Corn: 0
[3]; [21]
  Plant response rating, Corn: 0
[3]; [22]
  Corn plant response rating: 5
[3]; [23]
  Corn plant response rating: 5
[4]; [16]
  Plant response rating, Crabgrass, Large: 10
[4]; [17]
  Plant response rating, Crabgrass, Large: 20
[4]; [18]
  Plant response rating, Crabgrass, Large: 40
[4]; [19]
  Plant response rating, Crabgrass, Large: 0
[4]; [20]
  Plant response rating, Crabgrass, Large: 10
[4]; [21]
  Plant response rating, Crabgrass, Large: 10
[4]; [22]
  Crabgrass, Large plant response rating: 35
[4]; [23]
  Crabgrass, Large plant response rating: 5
[5]; [16]
  Plant response rating, Johnsongrass: 0
[5]; [17]
  Plant response rating, Johnsongrass: 5
[5]; [18]
  Plant response rating, Johnsongrass: 5
[5]; [19]
  Plant response rating, Johnsongrass: 0
[5]; [20]
  Plant response rating, Johnsongrass: 0
[5]; [21]
  Plant response rating, Johnsongrass: 0
[5]; [22]
  Johnsongrass plant response rating: 10
[6]; [16]
  Plant response rating, Lambsquarters: 90
[6]; [17]
  Plant response rating, Lambsquarters: 98
[6]; [18]
  Plant response rating, Lambsquarters: 100
[6]; [19]
  Plant response rating, Lambsquarters: 60
[6]; [20]
  Plant response rating, Lambsquarters: 80
[6]; [21]
  Plant response rating, Lambsquarters: 98
[6]; [22]
  Lambsquarters plant response rating: 100
[7]; [16]
  Plant response rating, Morningglory: 98
[7]; [17]
  Plant response rating, Morningglory: 100
[7]; [18]
  Plant response rating, Morningglory: 98
[7]; [19]
  Plant response rating, Morningglory: 25
[7]; [20]
  Plant response rating, Morningglory: 55
[7]; [21]
  Plant response rating, Morningglory: 85
[7]; [22]
  Morningglory plant response rating: 90
[8]; [16]
  Plant response rating, Nutsedge, Yellow: 45
[8]; [17]
  Plant response rating, Nutsedge, Yellow: 85
[8]; [18]
  Plant response rating, Nutsedge, Yellow: 75
[8]; [19]
  Plant response rating, Nutsedge, Yellow: 10
[8]; [20]
  Plant response rating, Nutsedge, Yellow: 25
[8]; [21]
  Plant response rating, Nutsedge, Yellow: 20
[8]; [22]
  Nutsedge, Yellow plant response rating: 50
[9]; [16]
  Plant response rating, Pigweed: 75
[9]; [17]
  Plant response rating, Pigweed: 90
[9]; [18]
  Plant response rating, Pigweed: 98
[9]; [19]
  Plant response rating, Pigweed: 100
[9]; [20]
  Plant response rating, Pigweed: 98
[9]; [21]
  Plant response rating, Pigweed: 90
[9]; [22]
  Pigweed plant response rating: 100
[10]; [16]
  Plant response rating, Ragweed: 75
[10]; [17]
  Plant response rating, Ragweed: 95
[10]; [18]
  Plant response rating, Ragweed: 98
[10]; [19]
  Plant response rating, Ragweed: 35
[10]; [20]
  Plant response rating, Ragweed: 95
[10]; [21]
  Plant response rating, Ragweed: 98
[10]; [22]
  Ragweed plant response rating: 98
[11]; [16]
  Plant response rating, Ryegrass, Italian: 85
[11]; [17]
  Plant response rating, Ryegrass, Italian: 90
[11]; [18]
  Plant response rating, Ryegrass, Italian: 90
[11]; [19]
  Plant response rating, Ryegrass, Italian: 75
[11]; [20]
  Plant response rating, Ryegrass, Italian: 90
[11]; [21]
  Plant response rating, Ryegrass, Italian: 95
[11]; [22]
  Ryegrass, Italian plant response rating: 100
[12]; [16]
  Plant response rating, Soybean: 0
[12]; [17]
  Plant response rating, Soybean: 0
[12]; [18]
  Plant response rating, Soybean: 0
[12]; [19]
  Plant response rating, Soybean: 0
[12]; [20]
  Plant response rating, Soybean: 0
[12]; [21]
  Plant response rating, Soybean: 0
[12]; [22]
  Soybean plant response rating: 0
[13]; [16]
  Plant response rating, Velvetleaf: 10
[13]; [17]
  Plant response rating, Velvetleaf: 75
[13]; [18]
  Plant response rating, Velvetleaf: 80
[13]; [19]
  Plant response rating, Velvetleaf: 60
[13]; [20]
  Plant response rating, Velvetleaf: 75
[13]; [21]
  Plant response rating, Velvetleaf: 85
[13]; [22]
  Velvetleaf plant response rating: 95
[14]; [16]
  Plant response rating, Waterhemp: 60
[14]; [17]
  Plant response rating, Waterhemp: 75
[14]; [18]
  Plant response rating, Waterhemp: 70
[14]; [19]
  Plant response rating, Waterhemp: 70
[14]; [20]
  Plant response rating, Waterhemp: 95
[14]; [21]
  Plant response rating, Waterhemp: 85
[14]; [22]
  Waterhemp plant response rating: 100
[15]; [16]
  Plant response rating, Wheat: 5
[15]; [17]
  Plant response rating, Wheat: 25
[15]; [18]
  Plant response rating, Wheat: 0
[15]; [19]
  Plant response rating, Wheat: 0
[15]; [20]
  Plant response rating, Wheat: 0
[15]; [21]
  Plant response rating, Wheat: 10
[15]; [22]
  Wheat plant response rating: 15
